In patent publication US20250098679A1, “HERBICIDAL PYRIDONE DERIVATIVES” (SYNGENTA CROP PROTECTION AG, priority 2021, published 2025):

Experiments:
Type in all cases: in vivo
Setaria faberi (SETFA) [1] = test: Pre-emergence Test, Setaria faberi (SETFA); details: 1000 g/ha, evaluated after 13 days
[2] = test system: Amaranthus retoflexus (AMARE); test: Post-emergence Test, Amaranthus retoflexus (AMARE); parameters: key to percentage damage caused to the plant, AMARE (five-point scale): 5=81-100%, 4=61-80%, 3=41-60%, 2=21-40%, 1=0-20% damage; details: evaluated after 13 days
In short: (§1)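 Tested at 1000 g/ha unless otherwise stated. Plants were held at 24/16 °C day/night with a 14 h light period. Percent damage was read at 13 days and reported in five bands.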

[3] = test system: Amaranthus palmeri (AMAPA); test: Pre-emergence Test, Amaranthus palmeri (AMAPA); details: 1000 g/ha, evaluated after 13 days
[4] = test system: Amaranthus palmeri (AMAPA); test: Post-emergence Test, Amaranthus palmeri (AMAPA); parameters: key: 5=81-100%, 4=61-80%, 3=41-60%, 2=21-40%, 1=0-20% damage; details: evaluated after 13 days
In short: as §1

[5] = test system: Ipomoea hederacea (IPOHE); test: Pre-emergence Test, Ipomoea hederacea (IPOHE); details: 1000 g/ha, evaluated after 13 days
Setaria faberi (SETFA) [6] = test: Post-emergence Test, Setaria faberi (SETFA); parameters: key to percentage damage caused to the plant, SETFA (five-point scale): 5=81-100%, 4=61-80%, 3=41-60%, 2=21-40%, 1=0-20% damage; details: evaluated after 13 days
In short: as §1

[7] = test system: Echinochloa crus-galli (ECHCG); test: Pre-emergence Test, Echinochloa crus-galli (ECHCG); details: 1000 g/ha, evaluated after 13 days
Zea mays (ZEAMX) [8] = test: Pre-emergence Test, Zea mays (ZEAMX); details: 1000 g/ha, evaluated after 13 days
Zea mays (ZEAMX) [9] = test: Post-emergence Test, Zea mays (ZEAMX); parameters: key to percentage damage caused to the plant, ZEAMX (five-point scale): 5=81-100%, 4=61-80%, 3=41-60%, 2=21-40%, 1=0-20% damage; details: evaluated after 13 days
In short: as §1

[10] = test system: Echinochloa crus-galli (ECHCG); test: Post-emergence Test, Echinochloa crus-galli (ECHCG); parameters: key to percentage damage caused to the plant, ECHCG (five-point scale): 5=81-100%, 4=61-80%, 3=41-60%, 2=21-40%, 1=0-20% damage; details: evaluated after 13 days
In short: as §1

[11] = test system: Amaranthus retoflexus (AMARE); test: Pre-emergence Test, Amaranthus retoflexus (AMARE); details: 1000 g/ha, evaluated after 13 days
[12] = test system: Ipomoea hederacea (IPOHE); test: Post-emergence Test, Ipomoea hederacea (IPOHE); parameters: key to percentage damage caused to the plant, IPOHE (five-point scale): 5=81-100%, 4=61-80%, 3=41-60%, 2=21-40%, 1=0-20% damage; details: evaluated after 13 days
In short: as §1

Structure (SMILES) | Pre-emergence Test SETFA, percentage damage caused to the plant (five-point scale) (Setaria faberi (SETFA) [1]) | percentage damage caused to the plant, AMARE (five-point scale) ([2]; 1000 g/ha) | Pre-emergence Test AMAPA, percentage damage caused to the plant (five-point scale) [3] | percentage damage caused to the plant, AMAPA (five-point scale) ([4]; 1000 g/ha) | Pre-emergence Test IPOHE, percentage damage caused to the plant (five-point scale) [5] | percentage damage caused to the plant, SETFA (five-point scale) (Setaria faberi (SETFA) [6]; 1000 g/ha) | Pre-emergence Test ECHCG, percentage damage caused to the plant (five-point scale) [7] | Pre-emergence Test ZEAMX, percentage damage caused to the plant (five-point scale) (Zea mays (ZEAMX) [8]) | percentage damage caused to the plant, ZEAMX (five-point scale) (Zea mays (ZEAMX) [9]; 1000 g/ha) | percentage damage caused to the plant, ECHCG (five-point scale) ([10]; 1000 g/ha) | Pre-emergence Test AMARE, percentage damage caused to the plant (five-point scale) [11] | percentage damage caused to the plant, IPOHE (five-point scale) ([12]; 1000 g/ha) | percentage damage caused to the plant, AMARE (five-point scale) ([2]; 250 g/Ha) | percentage damage caused to the plant, AMAPA (five-point scale) ([4]; 250 g/Ha) | percentage damage caused to the plant, SETFA (five-point scale) (Setaria faberi (SETFA) [6]; 250 g/Ha) | percentage damage caused to the plant, ZEAMX (five-point scale) (Zea mays (ZEAMX) [9]; 250 g/Ha) | percentage damage caused to the plant, ECHCG (five-point scale) ([10]; 250 g/Ha) | percentage damage caused to the plant, IPOHE (five-point scale) ([12]; 250 g/Ha)
CCOC(=O)c1c(-c2ccc(Cl)c(Cl)c2)n(CC)c(Cn2cnc(C(F)(F)F)n2)cc1=O [Compound 12, ethyl 2-(3,4-dichlorophenyl)-1-ethyl-4-oxo-6-[[3-(trifluoromethyl)-1,2,4-triazol-1-yl]methane]pyridine-3-carboxylate] | 0 | 1 (1=0-20%) | 0 | 2 (2=21-40%) | 0 | 1 (1=0-20%) | 0 | 0 | 1 (1=0-20%) | 1 (1=0-20%) | 0 | 2 (2=21-40%) |  |  |  |  |  | 
CCOC(=O)c1cc(C(=O)OCC)n(Cc2cc(=O)c(C(=O)O)c(-c3ccc(Cl)c(Cl)c3)n2CC)n1 [Compound 112, 6-[[3,5-bis(ethoxycarbonyl)pyrazol-1-yl]methyl]-2-(3,4-dichlorophenyl)-1-ethyl-4-oxo-pyridine-3-carboxylic acid] | 0 | 1 (1=0-20%) | 1 (1=0-20%) | 1 (1=0-20%) | 0 | 1 (1=0-20%) | 0 | 0 | 0 | 2 (2=21-40%) | 1 (1=0-20%) | 2 (2=21-40%) |  |  |  |  |  | 
CCn1c(Cn2cnc(OC)n2)cc(=O)c(C(=O)O)c1-c1ccc(Cl)c(Cl)c1 [Compound 44, 2-(3,4-dichlorophenyl)-1-ethyl-6-[(3-methoxy-1,2,4-triazol-1-yl)methyl]-4-oxo-pyridine-3-carboxylic acid] | 1 (1=0-20%) | 0 | 3 (3=41-60%) | 3 (3=41-60%) | 1 (1=0-20%) | 1 (1=0-20%) | 2 (2=21-40%) | 0 | 1 (1=0-20%) | 1 (1=0-20%) | 2 (2=21-40%) | 2 (2=21-40%) |  |  |  |  |  | 
CCn1c(Cn2ccc(Cl)n2)cc(=O)c(C(=O)O)c1-c1ccc(F)c(Cl)c1 [Compound 28, 2-(3-chloro-4-fluoro-phenyl)-6-[(3-chloropyrazol-1-yl)methyl]-1-ethyl-4-oxo-pyridine-3-carboxylic acid] | 5 (5=81-100%) | 0 | 0 | 2 (2=21-40%) | 1 (1=0-20%) | 4 (4=61-80%) | 5 (5=81-100%) | 0 | 4 (4=61-80%) | 4 (4=61-80%) | 0 | 1 (1=0-20%) | 1 (1=0-20%) | 1 (1=0-20%) | 4 (4=61-80%) | 0 | 3 (3=41-60%) | 4 (4=61-80%)
CCn1c(Cn2ccc(C(F)(F)F)n2)c(C)c(=O)c(C(=O)O)c1-c1ccc(Cl)c(Cl)c1 [Compound 20, 2-(3,4-dichlorophenyl)-1-ethyl-5-methyl-4-oxo-6-[[3-(trifluoromethyl)pyrazol-1-yl]methyl]pyridine-3-carboxylic acid] | 2 (2=21-40%) | 1 (1=0-20%) | 0 | 0 | 0 | 4 (4=61-80%) | 4 (4=61-80%) | 1 (1=0-20%) | 1 (1=0-20%) | 3 (3=41-60%) | 0 | 0 |  |  |  |  |  | 
CCn1c(Cn2cc3c(n2)CCCC3)cc(=O)c(C(=O)O)c1-c1ccc(Cl)c(Cl)c1 [Compound 101, 2-(3,4-dichlorophenyl)-1-ethyl-4-oxo-6-(4,5,6,7-tetrahydroindazol-2-ylmethyl)pyridine-3-carboxylic acid] | 1 (1=0-20%) | 0 | 2 (2=21-40%) | 0 | 2 (2=21-40%) | 0 | 0 | 1 (1=0-20%) | 0 | 0 | 1 (1=0-20%) | 3 (3=41-60%) | 0 | 0 | 0 | 0 | 1 (1=0-20%) | 0
CCn1c(Cn2cnc([N+](=O)[O-])c2)cc(=O)c(C(=O)O)c1-c1ccc(Cl)c(Cl)c1 [Compound 50, 2-(3,4-dichlorophenyl)-1-ethyl-6-[(4-nitroimidazol-1-yl)methyl]-4-oxo-pyridine-3-carboxylic acid] | 0 | 0 | 1 (1=0-20%) | 3 (3=41-60%) | 0 | 2 (2=21-40%) | 1 (1=0-20%) | 0 | 1 (1=0-20%) | 1 (1=0-20%) | 1 (1=0-20%) | 2 (2=21-40%) |  |  |  |  |  | 
